According to patent US20230150924A1, “NOVEL COMPOUND HAVING CANCER METASTASIS INHIBITORY ACTIVITY, PREPARATION METHOD THEREFOR, AND PHARMACEUTICAL COMPOSITION FOR INHIBITING CANCER METASTASIS AND INVASION OR TREATING COLORECTAL CANCER, COMPRISING COMPOUND” (CELLGENTEK CO., LTD., priority 2019, published 2023):

Legend:
[1] = system: invasion of colorectal cancer cells; test: In vivo relative invation (invasion; EV and KITENIN controls, no method described); conditions: relative to EV (=1); KIT = KITENIN
[2] = system: KAI1 promoter; test: KAI1 promoter luciferase reporter assay in transfected Caco2 cells; assay type: cell-based, human; conditions: 1 μM compound, 16 hours, transfected Caco2 cells, luciferase activity relative to DMSO control (=1); for fold induction at 1 µM: Homo sapiens, Caco-2, 16 h, read-out: Relative KAI promoter activity

SMILES | In vivo relative invation [1] | fold induction at 1 µM [2] | Relative KAI promoter activity [2]
CCCN(CCC)Cc1cccc(C(=O)NCC(=O)c2ccccc2)c1 [Example 248, 3-((dipropylamino)methyl)-N-(2-oxo-2-phenylethyl)benzamide] | 1.116 | 1.3 | –
O=C(CNC(=O)c1ccccc1OC1CCN(C(=O)c2ccc(F)cc2F)CC1)c1ccccc1 [Example 177, 2-((1-(2,4-difluorobenzoyl)piperidin-4-yl)oxy)-N-(2-oxo-2-phenylethyl)benzamide] | 1.159 | 0.95 | –
CN1CCN(Cc2cccc(C(=O)NCC(=O)c3ccccc3)c2)CC1 [Example 253, 3-((4-methylpiperazin-1-yl)methyl)-N-(2-oxo-2-phenylethyl)benzamide] | 1.421 | 0.963 | –
CCCCCN(CCCCC)Cc1cccc(C(=O)NCC(=O)c2ccccc2)c1 [Example 250, 3-((dipentylamino)methyl)-N-(2-oxo-2-phenylethyl)benzamide] | 0.9781 | 1.25 | –
O=C(CNC(=O)c1ccc(F)cc1Cl)c1ccccc1 [Example 33, 2-chloro-4-fluoro-N-(2-oxo-2-phenylethyl)benzamide] | 0.7513 | 1.78 | –
CCC(=O)NCC(=O)c1ccc(Cl)cc1 [Example 54, N-(2-(4-chlorophenyl)-2-oxoethyl) propionamide] | 1.083 | 0.7 | –
COc1ccc(S(=O)(=O)NCC(=O)c2ccc(N3CCOCC3)cc2)cc1 [Example 150, 4-methoxy-N-(2-(4-morpholinophenyl)-2-oxoethyl)benzenesulfonamide] | 1.071 | 1.14 | –
CC(Oc1ccccc1)C(=O)NCC(=O)c1ccc(N(C)C)cc1 (stereo not drawn) [Example 89, N-(2-(4-(dimethylamino)phenyl)-2-oxoethyl)-2-phenoxypropanamide] | 1.074 | 1.27 | –
CN(Cc1ccc(C(=O)NCC(=O)c2ccccc2)cc1)c1ccccc1 [Example 262, 4-((methyl (phenyl)amino)methyl)-N-(2-oxo-2-phenylethyl)benzamide] | 1.09 | 1.54 | –
CCC(=O)N1CCC(Oc2ccccc2C(=O)NCC(=O)c2ccccc2)CC1 [Example 164, N-(2-oxo-2-phenylethyl)-2-((1-propionylpiperidin-4-yl)oxy)benzamide] | 1.088 | 0.98 | –
CCCCN(C)Cc1ccc(C(=O)NCC(=O)c2ccccc2)cc1 [Example 271, 4-((butyl (methyl)amino)methyl)-N-(2-oxo-2-phenylethyl)benzamide] | 1.228 | 1.31 | –
O=C(CNC(=O)c1ccccc1OCC(=O)N1CCc2ccccc2C1)c1ccccc1 [Example 227, 2-(2-(3,4-dihydroisoquinolin-2 (1H)-yl)-2-oxoethoxy)-N-(2-oxo-2-phenylethyl)benzamide] | 1.153 | 1.01 | –
CN(C)c1ccc(C(=O)CNS(=O)(=O)c2ccc(F)cc2)cc1 [Example 107, N-(2-(4-(dimethylamino)phenyl)-2-oxoethyl)-4-fluorobenzenesulfonamide] | 0.9868 | 2.07 | –
CN(Cc1ccccc1)Cc1ccc(C(=O)NCC(=O)c2ccccc2)cc1 [Example 266, 4-((benzyl(methyl)amino)methyl)-N-(2-oxo-2-phenylethyl)benzamide] | 1.401 | 2.21 | –
CCCCN(CC)Cc1ccc(C(=O)NCC(=O)c2ccccc2)cc1 [Example 273, 4-((butyl(ethyl)amino)methyl)-N-(2-oxo-2-phenylethyl)benzamide] | 1.171 | 1.2 | –
O=C(CNC(=O)c1cccc(CN2CCN(c3ccc([N+](=O)[O-])cc3)CC2)c1)c1ccccc1 [Example 238, 3-((4-(4-nitrophenyl)piperazin-1-yl)methyl)-N-(2-oxo-2-phenylethyl)benzamide] | 1.12 | 1.6 | –
CCCCN(CC)Cc1cccc(C(=O)NCC(=O)c2cccc(OC)c2)c1 [Example 290, 3-((butyl (ethyl)amino)methyl)-N-(2-(3-methoxyphenyl)-2-oxoethyl)benzamide] | 0.9234 | 1.23 | –
COc1cc(C)ccc1NC(=O)COc1ccccc1C(=O)NCC(=O)c1ccccc1 [Example 206, 2-(2-((2-methoxy-4-methylphenyl)amino)-2-oxoethoxy)-N-(2-oxo-2-phenylethyl)benzamide] | 1.11 | 1.05 | –
O=C(COc1ccccc1C(=O)NCC(=O)c1ccccc1)Nc1ccc(F)c([N+](=O)[O-])c1 [Example 211] | 0.8699 | 1.44 | –
CN(C)c1ccc(C(=O)CNS(=O)(=O)Cc2ccccc2)cc1 [Example 110, N-(2-(4-(dimethylamino)phenyl)-2-oxoethyl)-1-phenylmethanesulfonamide] | 1.009 | 1.49 | –

SMILES | In vivo relative invation [1] | fold induction at 1 µM [2] | Relative KAI promoter activity [2]
O=C(CNC(=O)c1ccc(CN2CCOCC2)cc1)c1ccccc1 [Example 276, 4-(morpholinomethyl)-N-(2-oxo-2-phenylethyl)benzamide] | 1.224 | 3.39 | –
COc1cccc(C(=O)CNC(=O)c2ccc(Cl)cc2)c1 [Example 122, 4-chloro-N-(2-(3-methoxyphenyl)-2-oxoethyl)benzamide] | 1.374 | 1.65 | –
O=C(CNC(=O)c1cccc(OC(F)(F)F)c1)c1ccc(Cl)cc1 [Example 82, N-(2-(4-chlorophenyl)-2-oxoethyl)-3-(trifluoromethoxy)benzamide] | 1.189 | 0.8 | –
CC(=O)N1CCC(Oc2ccccc2C(=O)NCC(=O)c2ccccc2)CC1 [Example 182, 2-((1-acetylpiperidin-4-yl)oxy)-N-(2-oxo-2-phenylethyl)benzamide] | 1.095 | 0.93 | –
O=C(CNS(=O)(=O)Cc1ccccc1)c1ccc(N2CCOCC2)cc1 [Example 149, N-(2-(4-morpholinophenyl)-2-oxoethyl)-1-phenylmethanesulfonamide] | 1.261 | 1.07 | –
O=C(CNC(=O)C1CC1)c1ccccc1 [Example 16, N-(2-oxo-2-phenylethyl)cyclopropanecarboxamide] | 0.9645 | 0.92 | –
COc1cccc(C(=O)CNC(=O)c2cccc(CN(C)Cc3ccccc3)c2)c1 [Example 286, 3-((benzyl (methyl)amino)methyl)-N-(2-(3-methoxyphenyl)-2-oxoethyl)benzamide] | 1.233 | 1.43 | –
O=C(CNC(=O)c1cc(C(F)(F)F)cc(C(F)(F)F)c1)c1ccc(Cl)cc1 [Example 72, N-(2-(4-chlorophenyl)-2-oxoethyl)-3,5-bis(trifluoromethyl)benzamide] | 1.044 | 0.8 | –
O=C(CNS(=O)(=O)Cc1ccccc1)c1ccccc1 [Example 28, N-(2-oxo-2-phenylethyl)-1-phenylmethanesulfonamide] | 1.057 | 1.02 | –
O=C(CNC(=O)c1ccccc1OC1CCN(C(=O)c2ccccc2C(F)(F)F)CC1)c1ccccc1 [Example 191, N-(2-oxo-2-phenylethyl)-2-((1-(2-(trifluoromethyl)benzoyl)piperidin-4-yl)oxy)benzamide] | 1.106 | 0.84 | –
O=C(CNC(=O)c1ccccc1OC1CCN(C(=O)C2CCCCC2)CC1)c1ccccc1 [Example 165, 2-((1-(cyclohexanecarbonyl)piperidin-4-yl)oxy)-N-(2-oxo-2-phenylethyl)benzamide] | 1.133 | 1.07 | –
CC(=O)Oc1ccccc1C(=O)N1CCC(Oc2ccccc2C(=O)NCC(=O)c2ccccc2)CC1 [Example 176, 2-(4-(2-((2-oxo-2-phenylethyl)carbamoyl)phenoxy)piperidine-1-carbonyl)phenylacetate] | 1.26 | 1.08 | –
COc1ccc(C(=O)NCC(=O)c2ccc(Cl)cc2)cc1 [Example 62, N-(2-(4-chlorophenyl)-2-oxoethyl)-4-methoxybenzamide] | 1.122 | – | 1.03
O=C(CNC(=O)c1ccc(F)cc1Cl)c1ccc(Cl)cc1 [Example 76, 2-chloro-N-(2-(4-chlorophenyl)-2-oxoethyl)-4-fluorobenzamide] | 1.12 | 0.83 | –
COc1cc(OC)cc(C(=O)NCC(=O)c2ccc(Cl)cc2)c1 [Example 85, N-(2-(4-chlorophenyl)-2-oxoethyl)-3,5imethoxybenzamide] | 1.206 | 0.96 | –
Cc1ccc(S(=O)(=O)NCC(=O)c2ccc(Cl)cc2)cc1 [Example 68, N-(2-(4-chlorophenyl)-2-oxoethyl)-4-methylbenzenesulfonamide] | 1.125 | 0.88 | –
O=C(CNC(=O)c1cc(Cl)cc(Cl)c1)c1ccc(Cl)cc1 [Example 79, 3,5-dichloro-N-(2-(4-chlorophenyl)-2-oxoethyl)benzamide] | 1.102 | 1.03 | –
O=C(CNC(=O)c1ccccc1OC1CCN(C(=O)CCc2ccccc2)CC1)c1ccccc1 [Example 159, N-(2-oxo-2-phenylethyl)-2-((1-(3-phenylpropanoyl)piperidin-4-yl)oxy)benzamide] | 1.059 | 0.99 | –
CCCCC(=O)NCC(=O)c1cccc(OC)c1 [Example 128, N-(2-(3-methoxyphenyl)-2-oxoethyl)pentanamide] | 1.179 | 1.1 | –
